Test system: NCI-H196 complex spheroid viability
Test: Anticancer human tumor NCI-H196 cell line growth inhibition [LSD1];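 note: spheroids exposed to agents for 7 days before readout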;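 for viability, T/C: 100% = DMSO vehicle control viability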
Conditions: for IC50: curve of first compound; for viability, T/C: stronger effect = lower value; active = viability on the fitted dose curve at most 10% of control; inactive = the rest
Method in brief: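 Drug combinations with the LSD1 inhibitor iadademstat tested on tumor cells co-cultured as spheroids with endothelial cells and mesenchymal stem cells. Concentrations descended in half-log increments from clinical Cmax or 10 microM.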

[1] = second compound 0.1 µM, first compound 0.00949 µM
[2] = second compound 0.1 µM, first compound 0.03 µM
[3] = second compound 0.1 µM, first compound 0.0949 µM
[4] = second compound 0.1 µM, first compound 0.3 µM
[5] = second compound 0.1 µM, first compound 0.949 µM
[6] = second compound 0.1 µM, first compound 3 µM
[7] = second compound 0.316 µM, first compound 0.00949 µM
[8] = second compound 0.316 µM, first compound 0.03 µM
[9] = second compound 0.316 µM, first compound 0.0949 µM
[10] = second compound 0.316 µM, first compound 0.3 µM
[11] = second compound 0.316 µM, first compound 0.949 µM
[12] = second compound 0.316 µM, first compound 3 µM
[13] = second compound 1 µM, first compound 0.00949 µM
[14] = second compound 1 µM, first compound 0.03 µM
[15] = second compound 1 µM, first compound 0.0949 µM
[16] = second compound 1 µM, first compound 0.3 µM
[17] = second compound 1 µM, first compound 0.949 µM
[18] = second compound 1 µM, first compound 3 µM
[19] = second compound 3.16 µM, first compound 0.00949 µM
[20] = second compound 3.16 µM, first compound 0.03 µM
[21] = second compound 3.16 µM, first compound 0.0949 µM
[22] = second compound 3.16 µM, first compound 0.3 µM
[23] = second compound 3.16 µM, first compound 0.949 µM
[24] = second compound 3.16 µM, first compound 3 µM
[25] = second compound 10 µM, first compound 0.00949 µM
[26] = second compound 10 µM, first compound 0.03 µM
[27] = second compound 10 µM, first compound 0.0949 µM
[28] = second compound 10 µM, first compound 0.3 µM
[29] = second compound 10 µM, first compound 0.949 µM
[30] = second compound 10 µM, first compound 3 µM

CC(C)CC(NC(=O)C(Cc1ccccc1)NC(=O)c1cnccn1)B(O)O (stereo not given) + NC1CC1c1ccc(-c2cccc(O)c2)cc1
0.373 nM: IC50 (second compound 0.316 µM)
0.36 nM: IC50 (second compound 0.1 µM)
0.392 nM: IC50 (second compound 1 µM)
0.375 nM: IC50 (second compound 3.16 µM)
active: viability, T/C (second compound 0.1 µM, first compound 0.001 µM) 3.85% | viability, T/C (second compound 0.1 µM, first compound 0.00316 µM) 4.59% | viability, T/C (second compound 0.1 µM, first compound 0.01 µM) 4.04% | viability, T/C (second compound 0.1 µM, first compound 0.0316 µM) 1.83% | viability, T/C (second compound 0.1 µM, first compound 0.1 µM) 0.7% | viability, T/C (second compound 0.316 µM, first compound 0.001 µM) 4.64% | viability, T/C (second compound 0.316 µM, first compound 0.00316 µM) 3.15% | viability, T/C (second compound 0.316 µM, first compound 0.01 µM) 2.27% | viability, T/C (second compound 0.316 µM, first compound 0.0316 µM) 1.73% | viability, T/C (second compound 0.316 µM, first compound 0.1 µM) 0.55% | viability, T/C (second compound 1 µM, first compound 0.001 µM) 4.41% | viability, T/C (second compound 1 µM, first compound 0.00316 µM) 3.18% | viability, T/C (second compound 1 µM, first compound 0.01 µM) 2.18% | viability, T/C (second compound 1 µM, first compound 0.0316 µM) 1.28% | viability, T/C (second compound 1 µM, first compound 0.1 µM) 0.5% | viability, T/C (second compound 3.16 µM, first compound 0.001 µM) 3.39% | viability, T/C (second compound 3.16 µM, first compound 0.00316 µM) 2.47% | viability, T/C (second compound 3.16 µM, first compound 0.01 µM) 1.72% | viability, T/C (second compound 3.16 µM, first compound 0.0316 µM) 1.87% | viability, T/C (second compound 3.16 µM, first compound 0.1 µM) 0.31% | viability, T/C (second compound 10 µM, first compound 0.001 µM) 2.54% | viability, T/C (second compound 10 µM, first compound 0.00316 µM) 2.01% | viability, T/C (second compound 10 µM, first compound 0.01 µM) 1.21% | viability, T/C (second compound 10 µM, first compound 0.0316 µM) 0.62% | viability, T/C (second compound 10 µM, first compound 0.1 µM) 0.38%
< 0.316 nM: IC50 (second compound 10 µM)
inactive: viability, T/C (second compound 0.1 µM, first compound 0.000316 µM) 55.9% | viability, T/C (second compound 0.316 µM, first compound 0.000316 µM) 57.6% | viability, T/C (second compound 1 µM, first compound 0.000316 µM) 60.4% | viability, T/C (second compound 3.16 µM, first compound 0.000316 µM) 58.1% | viability, T/C (second compound 10 µM, first compound 0.000316 µM) 42.5%

Nc1ccccc1NC(=O)c1ccc(CNC(=O)OCc2cccnc2)cc1 + NC1CCC(NC2CC2c2ccccc2)CC1
62.2 nM: IC50 (second compound 0.1 µM)
77.4 nM: IC50 (second compound 3.16 µM)
73.5 nM: IC50 (second compound 10 µM)
88.6 nM: IC50 (second compound 1 µM)
59.3 nM: IC50 (second compound 0.316 µM)
active: viability, T/C [5] 0.32% | viability, T/C [6] 1.24% | viability, T/C [11] 0.27% | viability, T/C [12] 0.3% | viability, T/C [17] 0.24% | viability, T/C [18] 0.35% | viability, T/C [22] 10.2% | viability, T/C [23] 0.27% | viability, T/C [24] 0.26% | viability, T/C [29] 1.12% | viability, T/C [30] 0.38%
inactive: viability, T/C [1] 82.9% | viability, T/C [2] 66.6% | viability, T/C [3] 41% | viability, T/C [4] 12% | viability, T/C [7] 81.2% | viability, T/C [8] 69.3% | viability, T/C [9] 36.4% | viability, T/C [10] 11.9% | viability, T/C [13] 84.8% | viability, T/C [14] 73.3% | viability, T/C [15] 49.9% | viability, T/C [16] 12.2% | viability, T/C [19] 85.3% | viability, T/C [20] 78.9% | viability, T/C [21] 43.4% | viability, T/C [25] 89.7% | viability, T/C [26] 73.6% | viability, T/C [27] 44.3% | viability, T/C [28] 12.1%

Nc1ccccc1NC(=O)c1ccc(CNC(=O)OCc2cccnc2)cc1 + NC1CC1c1ccc(-c2cccc(O)c2)cc1
63.6 nM: IC50 (second compound 1 µM)
57.8 nM: IC50 (second compound 0.1 µM)
63 nM: IC50 (second compound 0.316 µM)
67.7 nM: IC50 (second compound 3.16 µM)
inactive: viability, T/C [1] 77.6% | viability, T/C [2] 66.3% | viability, T/C [3] 37.7% | viability, T/C [7] 78.8% | viability, T/C [8] 65.5% | viability, T/C [9] 42% | viability, T/C [13] 80.2% | viability, T/C [14] 63.9% | viability, T/C [15] 43.9% | viability, T/C [16] 8.12% | viability, T/C [19] 79.5% | viability, T/C [20] 70.1% | viability, T/C [21] 41.9% | viability, T/C [25] 82.2% | viability, T/C [26] 70.6% | viability, T/C [27] 55% | viability, T/C [28] 10.2%
active: viability, T/C [4] 5.54% | viability, T/C [5] 0.32% | viability, T/C [6] 0.4% | viability, T/C [10] 7.37% | viability, T/C [11] 0.32% | viability, T/C [12] 0.32% | viability, T/C [17] 1.9% | viability, T/C [18] 0.59% | viability, T/C [22] 7.06% | viability, T/C [23] 0.28% | viability, T/C [24] 0.39% | viability, T/C [29] 0.92% | viability, T/C [30] 0.55%
104 nM: IC50 (second compound 10 µM)
